Data taken from US11666589B2, “Pivarubicin and benzarubicin compositions” (Paradox Pharmaceuticals, Inc., priority 2020, dated 2023).

Assays:
CEM/VLB-10 = conditions: CEM/VLB-10, selecting drug; cited from earlier work
CEM/VLB-100 = conditions: CEM/VLB-100, selecting drug; cited from earlier work
[1] = tested on: 32D.3, J774.2 and 293 cells; assay: Biotransformation to AD 288 after uptake into cells; assay type: in vitro ADME; conditions: 8 hours after drug uptake into cells
From the text: (§1) Intracellular drug was extracted and analyzed by fluorescence HPLC as described previously.

[2] = tested on: 293 embryonic human kidney cells; assay: Drug biotransformation analysis (HPLC of intracellular drug) in 293 cells; assay type: in vitro ADME
From the text: as §1

[3] = tested on: 32D.3 murine myeloid cells; assay: Drug biotransformation analysis (HPLC of intracellular drug) in 32D.3 cells; assay type: in vitro ADME
From the text: as §1

[4] = tested on: J774.2 murine macrophage-like cells; assay: Drug biotransformation analysis (HPLC of intracellular drug) in J774.2 cells; assay type: in vitro ADME
From the text: as §1

| Structure (SMILES) | resistance (CEM/VLB-10) | resistance (CEM/VLB-100) | biotransformation to N-benzyladriamycin (AD 288) [1] | % Parent Compound ([2]; 293, 1 hr, 1 μM drug, 37° C.) | % Parent Compound ([2]; 293, 8 hr (1 hr drug + 7 hours drug-free medium)) | % Parent Compound ([3]; 32D.3, 1 hr, 1 μM drug, 37° C.) | % Parent Compound ([3]; 32D.3, 8 hr (1 hr drug + 7 hours drug-free medium)) | % Parent Compound ([4]; J774.2, 1 hr, 1 μM drug, 37° C.) | % Parent Compound ([4]; J774.2, 8 hr (1 hr drug + 7 hours drug-free medium)) |
| --- | --- | --- | --- | --- | --- | --- | --- | --- | --- |
| CC[C@]1(O)C[C@@H]2CN(CCc3c([nH]c4ccccc34)[C@@](C(=O)OC)(c3cc4c(cc3OC)N(C)[C@H]3[C@@](O)(C(=O)OC)[C@H](OC(C)=O)[C@]5(CC)C=CCN6CC[C@]43[C@@H]65)C2)C1 [vinblastine] | 10.6 fold | 269 fold | – | – | – | – | – | – | – |
| CCCCC(=O)OCC(=O)[C@]1(O)Cc2c(O)c3c(c(O)c2[C@@H](O[C@H]2C[C@H](NCc4ccccc4)[C@H](O)[C@H](C)O2)C1)C(=O)c1c(OC)cccc1C3=O [AD 198, N-Benzyladriamycin-14-valerate] | – | – | approximately 50% | 80% | 50% | 90% | 56% | 90% | 50% |
